Experimental data taken from PubChem BioAssay (NCI).
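How tested: cells in 96-well plates exposed to compound for 48 hours at five concentrations. Abbreviation: GI50, concentration required for 50% inhibition of growth. TGI is the concentration that stops growth completely.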

Columns and labels:
Experiment in all cases: growth of human tumour cells (NCI), 48 h
[1] = test system: M14 melanoma
[2] = test system: KM12 colon
[3] = test system: UACC-62 melanoma
[4] = test system: MDA-MB-231 breast
[5] = test system: NCI/ADR-RES ovarian
[6] = test system: SNB-75 CNS
[7] = test system: HT29 colon
[8] = test system: NCI-H522 lung
[9] = test system: SK-MEL-5 melanoma
[10] = test system: OVCAR-5 ovarian
[11] = test system: SNB-19 CNS
[12] = test system: ACHN renal
[13] = test system: SK-MEL-28 melanoma
[14] = test system: HCC-2998 colon
[15] = test system: A549 NSCLC
[16] = test system: UO-31 renal
[17] = test system: CAKI-1 renal
[18] = test system: OVCAR-4 ovarian
[19] = test system: BT-549 breast
[20] = test system: RXF 393 renal
[21] = test system: IGROV1 ovarian
[22] = test system: SF-539 CNS
[23] = test system: SF-295 CNS
[24] = test system: HCT-15 colon
[25] = test system: UACC-257 melanoma
[26] = test system: MDA-MB-435
[27] = test system: SK-MEL-2 melanoma
[28] = test system: CCRF-CEM leukemia
[29] = test system: U251 CNS
[30] = test system: TK-10 renal
[31] = test system: 786-0 renal
[32] = test system: MALME-3M melanoma
[33] = test system: MCF7 breast
[34] = test system: HL-60(TB) leukemia
[35] = test system: SR leukemia
[36] = test system: COLO 205 colon
[37] = test system: SW-620 colon
[38] = test system: NCI-H226 lung
[39] = test system: SN12C renal
[40] = test system: PC-3 prostate
[41] = test system: HOP-92 NSCLC
[42] = test system: K-562 leukemia
[43] = test system: LOX IMVI melanoma
[44] = test system: A498 renal
[45] = test system: SF-268 CNS
[46] = test system: HCT-116 colon
[47] = test system: NCI-H460 lung
[48] = test system: HOP-62 NSCLC
[49] = test system: SK-OV-3 ovarian
[50] = test system: MOLT-4 leukemia
[51] = test system: T-47D breast
[52] = test system: DU-145 prostate
[53] = test system: OVCAR-8 ovarian
[54] = test system: OVCAR-3 ovarian
[55] = test system: HS 578T breast
[56] = test system: EKVX NSCLC
[57] = test system: RPMI-8226 leukemia

Compound `CCc1cccc2c3c(sc12)C(c1ccc(OC)cc1)C(C#N)=C(/N=C/c1ccc(Cl)cc1)O3` (centres undefined) has a GI50 [1] of 1.24 µM, a TGI [1] of 5.17 µM and a GI50 [2] of 2.06 µM. For the same compound, the TGI [2] was 33.2 µM, the GI50 [3] was 0.54 µM and the TGI [3] was 30.5 µM. It also gave a GI50 [4] of 2.95 µM, a TGI [4] of 13.6 µM and a GI50 [5] of 0.55 µM. For the same compound, the TGI [5] was 4.7 µM, the GI50 [6] was 1.35 µM and the TGI [6] was 15.3 µM. It also gave a GI50 [7] of 2.31 µM, a TGI [7] of 6.26 µM and a GI50 [8] of 0.78 µM. For the same compound, the TGI [8] was 2.7 µM, the GI50 [9] was 2.81 µM and the TGI [9] was 11.8 µM. For the same compound, the GI50 [10] was 3.97 µM, the TGI [10] was 27.8 µM and the GI50 [11] was 3.56 µM. For the same compound, the TGI [11] was over 100 µM, the GI50 [12] was 3.16 µM and the TGI [12] was 19.4 µM. It also gave a GI50 [13] of 4.85 µM, a TGI [13] of 28 µM and a GI50 [14] of 1.79 µM. For the same compound, the TGI [14] was 4.57 µM, the GI50 [15] was 5.39 µM and the TGI [15] was over 100 µM. For the same compound, the GI50 [16] was 1.85 µM, the TGI [16] was 49.6 µM and the GI50 [17] was 0.595 µM. The TGI [17] was 29.1 µM, the GI50 [18] was 6.65 µM and the TGI [18] was over 100 µM. It also gave a GI50 [19] of 4.23 µM, a TGI [19] of 39.7 µM and a GI50 [20] of 0.72 µM. The TGI [20] was 2.56 µM, the GI50 [21] was 1.67 µM and the TGI [21] was over 100 µM. For the same compound, the GI50 [22] was 1.59 µM, the TGI [22] was 4.29 µM and the GI50 [23] was 1.26 µM. For the same compound, the TGI [23] was 15.5 µM, the GI50 [24] was 0.6 µM and the TGI [24] was 11.2 µM. For the same compound, the GI50 [25] was 16.1 µM, the TGI [25] was over 100 µM and the GI50 [26] was 0.227 µM. It also gave a TGI [26] of 0.578 µM, a GI50 [27] of 0.987 µM and a TGI [27] of 5.95 µM. The GI50 [28] was 0.792 µM, the TGI [28] was 7.96 µM and the GI50 [29] was 3 µM. For the same compound, the TGI [29] was 13.8 µM, the GI50 [30] was 20.5 µM and the TGI [30] was over 100 µM. It also gave a GI50 [31] of 2.2 µM, a TGI [31] of 16.1 µM and a GI50 [32] of 0.921 µM. For the same compound, the TGI [32] was 44.3 µM, the GI50 [33] was 0.859 µM and the TGI [33] was 14.1 µM. The GI50 [34] was 0.563 µM, the TGI [34] was 5.98 µM and the GI50 [35] was 0.361 µM. The TGI [35] was 5.97 µM, the GI50 [36] was 2.2 µM and the TGI [36] was 5 µM. The GI50 [37] was 1.14 µM, the TGI [37] was 15.7 µM and the GI50 [38] was 2.59 µM. The TGI [38] was 13.1 µM, the GI50 [39] was 3.76 µM and the TGI [39] was 19.1 µM. For the same compound, the GI50 [40] was 1.83 µM, the TGI [40] was 22.1 µM and the GI50 [41] was 5.48 µM. The TGI [41] was 53.3 µM, the GI50 [42] was 0.363 µM and the TGI [42] was over 100 µM. It also gave a GI50 [43] of 1.87 µM, a TGI [43] of 15 µM and a GI50 [44] of 20.1 µM. It also gave a TGI [44] of over 100 µM, a GI50 [45] of 5.6 µM and a TGI [45] of 44.4 µM. It also gave a GI50 [46] of 1.07 µM, a TGI [46] of 10.3 µM and a GI50 [47] of 1.02 µM. The TGI [47] was 10.4 µM, the GI50 [48] was 2.5 µM and the TGI [48] was 20.2 µM. It also gave a GI50 [49] of 2.42 µM, a TGI [49] of 45.4 µM and a GI50 [50] of 2.25 µM. The TGI [50] was 17.1 µM, the GI50 [51] was 2.43 µM and the TGI [51] was over 100 µM. The GI50 [52] was 3.3 µM, the TGI [52] was over 100 µM and the GI50 [53] was 2.15 µM. The TGI [53] was 7.09 µM, the GI50 [54] was 0.554 µM and the TGI [54] was 4.49 µM. The GI50 [55] was 1.9 µM, the TGI [55] was 7.8 µM and the GI50 [56] was 5.94 µM. It also gave a TGI [56] of over 100 µM, a GI50 [57] of 2.28 µM and a TGI [57] of 7.27 µM.
